Data published in patent publication US20080033029A1, “Treating Digestive Tract Conditions” (MAYO FOUNDATION FOR MEDICAL EDUCATION AND RESEARCH, priority 2004, published 2008).

Assays:
[1] = system: ICC (interstitial cells of Cajal); assay: ICC culture: number of ICC with or without 5HT; format: cell-based, mouse; conditions: 5HT 1 μM added every 12 hours for 24 hours; ICC from 6 day old Balb/C mice; c-kit antibody; untreated 8±0.5; P<0.0004; FIG. 1
Description: (§1) Blinded parallel cultures were established (n=2, 6 day old Balb/C mice yielding 6 coverslips). […] ICC were identified using an antibody to c-kit and counted. Mast cells, which were identified by their characteristic size and round shape, were not included in the analysis.

[2] = system: ICC (interstitial cells of Cajal); assay: Organotypic culture of adult mouse small intestine explants: ICC number; format: cell-based; conditions: 5HT 1 μM twice daily; explants from 6 month old mice; fixed at day 8; c-Kit staining, confocal 3D
Method: Briefly, one cm segments of mouse small intestine were cut, pinned flat mucosa side up, stripped of mucosa and submucosa layers, and placed into fresh, sterile-filtered Kreb's solution with 3 mM antibiotic. Krebs was removed, and DMEM (Dulbecco's Modified Eagle's Media) with 10% FBS (Fetal Bovine Serum) and 1% antibiotic/antimycotic was added to the culture. […] In the control explant, medium was added without 5HT. The tissue was fixed at day 8 and stained using an antibody to c-Kit. […]

[3] = system: ICC (interstitial cells of Cajal); 5HT2B receptor; assay: ICC culture: effect of 5HT2B receptor antagonist on the 5HT-induced increase in ICC number
Description: as §1

| SMILES | number of ICC per HPF [1] | number of ICC in explant versus control explant [2] | number of ICC per HPF [3] |
| --- | --- | --- | --- |
| NCCc1c[nH]c2ccc(O)cc12 [5HT, Serotonin] | 14±0.4 ICC per HPF | greater number of ICC |  |
| Cc1cc(NC(=O)Nc2ccc3c(ccn3C)c2)sn1 [SB204741] |  |  | 9±0.2 ICC per HPF |
